Assay results as given in patent US20130017198A1, “MANIPULATION OF CALCIUM CHANNELS TO REGULATE AFTER-DEPOLARIZATION EVENTS IN CARDIAC MYOCYTES” (THE UAB RESEARCH FOUNDATION, priority 2010, published 2013).
Entries after “also recorded” stand apart in the source; their conditions may differ. Like-named read-outs stand apart in the source and are kept apart here.

What was measured:
CPLA2 activity in vivo = settings: cited from earlier work
CPLA2 = biological target: T1, CPLA2 (Homo sapiens, UniProt P47712); settings: selective inhibitor of CPLA2; cited from earlier work
T1 sequence (P47712 1-749): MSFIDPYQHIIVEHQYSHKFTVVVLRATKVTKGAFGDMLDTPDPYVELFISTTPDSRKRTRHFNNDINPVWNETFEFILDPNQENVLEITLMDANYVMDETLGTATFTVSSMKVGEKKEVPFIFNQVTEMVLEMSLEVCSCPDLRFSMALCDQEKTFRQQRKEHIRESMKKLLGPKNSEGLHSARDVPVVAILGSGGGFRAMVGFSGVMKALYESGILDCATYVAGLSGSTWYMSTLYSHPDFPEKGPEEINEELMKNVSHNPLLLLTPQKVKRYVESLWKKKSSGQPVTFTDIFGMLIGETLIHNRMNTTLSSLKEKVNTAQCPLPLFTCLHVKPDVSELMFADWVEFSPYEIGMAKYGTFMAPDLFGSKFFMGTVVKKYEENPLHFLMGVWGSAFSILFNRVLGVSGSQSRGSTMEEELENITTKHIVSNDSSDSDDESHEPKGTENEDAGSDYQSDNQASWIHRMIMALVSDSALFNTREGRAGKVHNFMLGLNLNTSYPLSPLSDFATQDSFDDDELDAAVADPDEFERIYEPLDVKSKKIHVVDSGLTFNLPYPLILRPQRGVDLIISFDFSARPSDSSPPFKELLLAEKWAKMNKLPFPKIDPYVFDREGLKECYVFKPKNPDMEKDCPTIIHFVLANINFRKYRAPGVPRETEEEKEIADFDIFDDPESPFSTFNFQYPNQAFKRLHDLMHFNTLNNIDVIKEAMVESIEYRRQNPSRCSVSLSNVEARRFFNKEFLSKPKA

[1] = system: left atrial appendage (LAA); assay: ATX-II-induced after-contractions (mechanical activity) in paced superfused rat left atrial appendage
Procedure: (§1) To determine whether ATX-II prolongs action potential duration and provokes after-depolarization and after-contractions, paced isolated rat LAA were superfused at 30° C., impaled with glass microelectrodes, and their action potentials were recorded. ATX-II was then added to the superfusate at about 30 nM and action potentials were recorded again.
The LAA was externally paced at 1 Hz throughout.
(§2) A series of experiments was performed to test the hypothesis that the calcium source for after-depolarization is the ARC channel. To test whether after-contractions and after-depolarization require ARC or SOCC activity, experiments were performed with the ARC channel inhibitor LOE-908 and with the SOCC inhibitor SKF-96365. Rat LAA were superfused at 30° C. and exposed to ˜30 nM ATX-II.

[2] = system: left atrial appendage (LAA); assay: Action potential recording / after-depolarization in paced superfused rat LAA exposed to ATX-II; settings: for action potential duration: ~30 nM ATX-II plus LOE-908 or SKF-96365
From the text: For example, isolated superfused muscles can be impaled with conventional glass microelectrodes of 10 to 30 MΩ resistance; these microelectrodes are filled with a solution of 3 M potassium chloride. Microelectrodes are routinely mounted on 30 μm silver-silver chloride spiral wire to allow for freedom of motion. Following the successful impalement of an individual myocyte, action potentials can be recorded with DC coupling at the center of the ring as the difference in voltage between the intracellular microelectrode and the extracellular silver-silver chloride reference electrode. Electrical signals are passed through a high-impedance capacitance-compensation preamplifier and are recorded on a personal computer at a sampling rate of […]. Subsequent data analysis of the action potentials of these muscles is performed using standard software (for an example of such a protocol, see Huang J et al., “Restitution properties during ventricular fibrillation in the in situ swine heart” Circulation 110:3161-3167 (2004), which is hereby incorporated by reference only for such teaching).
as §1
as §2, with “ATX-II. After 10-15 minutes, these muscles produced steady-state after-contractions, prolonged action potential duration and after-depolarization as shown previously.” for “ATX-II.”

ARC channel = biological target: T2, ARC channel (Rattus norvegicus, UniProt Q5M848+Q6AXR8); assay: Effect on ARC channel activity
T2 construct: from tissue; host or cells: rat left atrial appendage (LAA) muscle
T2 sequence (Q5M848 whole entry, other chains not shown): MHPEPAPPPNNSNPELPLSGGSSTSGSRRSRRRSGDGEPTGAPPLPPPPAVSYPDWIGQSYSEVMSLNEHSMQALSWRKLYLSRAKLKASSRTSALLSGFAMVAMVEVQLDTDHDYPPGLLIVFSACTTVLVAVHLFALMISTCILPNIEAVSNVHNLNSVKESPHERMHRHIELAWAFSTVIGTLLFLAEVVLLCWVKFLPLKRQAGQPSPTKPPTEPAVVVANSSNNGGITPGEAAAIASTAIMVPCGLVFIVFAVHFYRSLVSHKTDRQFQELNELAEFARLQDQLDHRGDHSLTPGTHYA

[3] = biological target: T3, store-operated calcium channel (SOCC) (Rattus norvegicus, UniProt Q5M848); assay: Effect on store-operated calcium channel activity
T3 construct: from tissue; host or cells: rat left atrial appendage (LAA) muscle
T3 sequence (Q5M848 whole entry): as the sequence (Q5M848 whole entry, other chains not shown) above

[4] = system: left atrial appendage (LAA); assay: Abnormal automatic activity of LAA at high ATX-II concentration; design: species or system rat
Procedure: Although moderate concentrations of ATX-II appear to cause after-contractions, high concentrations of ATX-II cause abnormal automatic activity. To further test the hypothesis that after-contractions occur via a separate mechanism from abnormal automatic activity, LAA were exposed to high concentrations (60 nM) of ATX-II. The LAA were then exposed to one of 40 μM LOE-908 without pacing, 20 μM SKF-96365 with 1 Hz pacing, or 40 μM SKF-96365 with 1 Hz pacing.

[5] = system: left atrial appendage (LAA); assay: Abnormal automatic activity produced by 2-aminoethoxy diphenylborate (SOCC activator) in calcium-loaded LAA; settings: calcium-loaded LAA treated with 2-aminoethoxy diphenylborate
Procedure: To further test the hypothesis that the calcium source for after-depolarization is not the SOCC, calcium-loaded LAA were treated with 2-aminoethoxy diphenylborate (an activator of the SOCC) to produce abnormal automatic activity. The LAA were then treated with either LOE-908 or SKF-96365.

[6] = system: isolated rat cardiac muscle; assay: After-contractions in isolated rat cardiac muscle incubated with ATX-II and CPLA2 inhibitors; settings: for IC50: isolated rat cardiac muscle incubated with ATX-II, read-out: IC50 (frequency of aftercontractions)
Procedure: In a separate experiment, isolated rat cardiac muscle was incubated with ATX-II in the presence of varying concentrations of amylcinnamoyl-anthranilic acid.

[7] = increasing concentrations, ~30 nM ATX-II, data not shown
[8] = increasing concentrations, ~30 nM ATX-II, rat LAA at 30° C.
[9] = 0.6 μM ryanodine, after steady-state ATX-II after-contractions
[10] = LAA pre-treated with the compound, then ATX-II

Molecule: O=C(CCc1ccc(OCCS(=O)(=O)CCOC(c2ccc(Cl)cc2)c2ccc(Cl)cc2)cc1)C(F)(F)F [BMS-229724, 4-[4-[2-[2-[bis(4-chlorophenyl)methoxy]ethyl-sulfonyl]ethoxy]phenyl]-1,1,1-trifluoro-2-butanone]
- CPLA2 activity in vivo / skin inflammation (CPLA2 activity in vivo): suppression of skin inflammation
- IC50 (CPLA2): 2.8 µM

Molecule: COc1ccc(CCN(C)CCCC(C#N)(c2ccc(OC)c(OC)c2)C(C)C)cc1OC (stereo not drawn) [verapamil]
- production of after-contractions ([1]; 10 μM verapamil, paced at 1 Hz, steady-state ATX-II after-contractions): did not affect the production of after-contractions

Molecule: methyl-β-cyclodextrin
- concentration as low as which after-depolarization is effectively eliminated [2]: 10 mM
- ARC channel activity (ARC channel): completely suppresses ARC channel activity
- store-operated calcium channel (SOCC) activity [3]: only reducing the activity of the SOCC to a minor degree
- after-contractions ([1]; 10 mM MβC superfusion then wash, ~30 nM ATX-II, 20 min recording): produced no after-contractions
- concentration as low as which ectopic contractions are effectively eliminated ([1]; cardiac muscle): 10 mM

Molecule: COc1ccc(CCCOC(Cn2ccnc2)c2ccc(OC)cc2)cc1 (stereo not drawn) [SKF-96365]
- after-depolarization [2, 7]: The same was observed
- action potential duration [2]: remained prolonged
- abnormal automatic activity ([4]; 60 nM ATX-II, 20 μM or 40 μM SKF-96365 with 1 Hz pacing): either reduced or eliminated abnormal automatic activity
- rate of spontaneous contractions caused by activation of the SOCC [5]: reduces the rate of spontaneous contractions
- after-contractions [1, 8]: suppressed after-contractions in a dose-dependent manner

Molecule: ryanodine
- after-contractions [1, 9]: after-contractions continued to occur
- mechanical force [1, 9]: greatly diminished mechanical force

Molecule: COc1cc2c(cc1OC)C(C(C(=O)N(CCc1ccc(OC)c(OC)c1OC)CCc1ccc(OC)c(OC)c1OC)c1ccccc1)=NCC2 (stereo not drawn) [LOE-908]
- concentration as low as which after-depolarization is effectively reduced [2]: 1 µM
- after-depolarization ([2]; 20 μM): no after-depolarization is observed
- after-depolarization [2, 7]: The same was observed
- action potential duration [2]: remained prolonged
- abnormal automatic activity ([4]; 60 nM ATX-II, 40 μM LOE-908 without pacing): failed to suppress abnormal automatic activity
- ARC channel activity (ARC channel): inhibit the activity of the ARC channel
- store-operated calcium channel (SOCC) activity [3]: no effect on the activity of the store-operated calcium channel
- ectopic contractions ([1]; 20 μM): no ectopic contractions are observed
- concentration as low as which ectopic contractions are effectively reduced ([1]; cardiac muscle): 1 µM
- after-contractions [1, 8]: suppressed after-contractions in a dose-dependent manner

Molecule: COc1ccc(S(=O)(=O)N(CCO)c2ccccc2CN(C)C/C=C/c2ccc(Cl)cc2)cc1 [KN-93]
- after-contractions [1, 10]: do not produce after-contractions; also recorded: suppression of after-contractions

Molecule: COc1ccc(S(=O)(=O)Nc2ccccc2CN(C)C/C=C/c2ccc(Cl)cc2)cc1 [KN-92]
- after-contractions [1, 10]: does not prevent after-contractions; also recorded: does not suppress after-contractions

Molecule: COc1cccc2c1cc([N+](=O)[O-])c1c(C(=O)O)cc3c(c12)OCO3 [aristolochic acid, 8-methoxy-6-nitrophenanthro[3,4-d][1,3]dioxole-5-carboxylic acid]
- after contractions [6]: suppress after contractions
- IC50 [6]: 31 ± 5 µM
- after-depolarization [2]: effectively inhibit after-depolarization; also recorded: suppress after-depolarization

Molecule: CCCCCc1ccc(/C=C/C(=O)Nc2ccccc2C(=O)O)cc1 [ACA]
- after contractions [6]: suppress after contractions
- concentration as low as which after contractions are suppressed [6]: 10 µM
- frequency of aftercontractions ([6]; 0-50 μM of ACA): decrease with increasing concentration
- IC50 [6]: 10 ± 4.5 µM
- after-depolarization [2]: suppress after-depolarization
- concentration as low as which after-depolarization is suppressed [2]: 10 µM
- after-depolarization ([2]; listed as amylcinnamoyl-anthranilic acid): effectively inhibit after-depolarization

Molecule: ATX-II: Anemonia sulcata toxin, sodium channel regulator that increases the late sodium current; arrhythmic agent
- action potential duration and early after-depolarization ([2]; 30 nM ATX-II, paced isolated rat LAA superfused at 30° C.): produced prolonged action potential duration and produced early after-depolarization during repolarization
- rate of rapid contraction in the absence of pacing ([4]; 60 nM ATX-II, FIG. 8A): 4 Hz
- rate of automatic activity persisting in the absence of pacing ([4]; 60 nM ATX-II, FIG. 8B): 2.7-3.3 Hz
- after-contractions ([4]; 60 nM ATX-II, left atria paced at 1 Hz): displayed after-contractions
- abnormal automatic activity ([4]; higher concentration of ATX-II): displayed abnormal automatic activity
- concentration inducing arrhythmia and after-depolarization [1]: 5 to 60 nM
- after-contractions following each paced contraction ([1]; 30 nM ATX-II, LAA paced at 1 Hz): after-contractions are observed
- concentration below which the ability to induce arrhythmia starts to decrease ([1]; KH buffer with added glucose): 10 to 50 nM
